Experiment [1] has as its target T1, DtpB (Escherichia coli, UniProt P36837).
T1 construct: purified membrane protein; reconstituted in liposomes for transport; Nb132 complex for crystals; host, tags and borders only in supplement
T1 sequence (P36837 1-489): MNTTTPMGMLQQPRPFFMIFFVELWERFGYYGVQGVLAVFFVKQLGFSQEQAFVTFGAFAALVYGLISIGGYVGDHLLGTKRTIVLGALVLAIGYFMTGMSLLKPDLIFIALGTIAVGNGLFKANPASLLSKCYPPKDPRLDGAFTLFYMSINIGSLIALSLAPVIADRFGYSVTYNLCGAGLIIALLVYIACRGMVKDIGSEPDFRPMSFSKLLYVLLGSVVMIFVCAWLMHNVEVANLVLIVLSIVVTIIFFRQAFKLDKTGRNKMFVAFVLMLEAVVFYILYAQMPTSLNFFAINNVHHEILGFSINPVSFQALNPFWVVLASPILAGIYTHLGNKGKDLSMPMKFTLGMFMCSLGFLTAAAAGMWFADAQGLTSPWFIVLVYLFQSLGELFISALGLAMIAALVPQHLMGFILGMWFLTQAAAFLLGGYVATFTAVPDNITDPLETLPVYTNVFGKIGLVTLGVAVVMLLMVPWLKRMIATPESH
Kind of experiment: X-ray crystal structure of complex. The experiment is classed as binding. As to conditions: crystallised with nanobody Nb132; inward-facing open; central cavity.

Experiment [2] concerns the target T1, DtpB. Briefly: thermal unfolding titration, irreversible kinetic (Hall) model. In kind it is binding.
In experiment [3] the target is T1, DtpB. Kind of experiment: inhibition of AA transport, pyranine fluorescence assay in proteoliposomes. The experiment is classed as biochemical.
In experiment [4] the target is T1, DtpB. The description is as above. In kind it is biochemical. The source holds these as a separate data set.
Experiment [5] deals with T1, DtpB. Kind of experiment: thermal unfolding titration, irreversible kinetic (Hall) model; also co-crystal structure. In kind it is binding. The settings on record: purified protein.

Marks after values point to notes of the source that are not given here. Residues, ends and D or L forms follow the SMILES beside them.

As usually defined, the Kd is the free concentration of one partner at which half of the binding sites on the other are occupied at equilibrium, for simple one-to-one binding. Read a low Kd as tighter binding. The term Ki denotes the dissociation constant of the complex between target and ligand, obtained from inhibition or displacement. A lower Ki goes with higher affinity. By IC50 is commonly meant the concentration that inhibits the measured activity by half. Low readings indicate greater potency in that assay, high ones weaker potency in that assay.

As to `CC[C@H](C)[C@H](NC(=O)[C@H](C)N)C(=O)O` [AI, Ala-Ile] (H-Ala-Ile-OH), at DtpB [1], the “X-ray crystal structure of complex” value is “Structure of DtpB bound to nanobody Nb132 and the dipeptide AI”.

Turning to `C[C@H](N)C(=O)N[C@@H](CCCCN)C(=O)O` [AK] (H-Ala-Lys-OH), the affinity on DtpB [2], expressed as Kd, was 1770 ± 90 µM.

In the case of `N[C@@H](CO)C(=O)N[C@@H](Cc1c[nH]cn1)C(=O)O` [SH] (H-Ser-His-OH), the affinity at DtpB [2], expressed as Kd, was 352 ± 38 µM.

`O=C(O)[C@H](Cc1ccc(O)cc1)NC(=O)[C@@H]1CCCN1` [PY] (H-Pro-Tyr-OH) had a Kd at DtpB [2] of 206 ± 126 µM.

As to `CC(C)[C@H](NC(=O)[C@@H](N)CCCCN)C(=O)O` [KV, Lys-Val] (H-Lys-Val-OH), the “X-ray crystal structure of complex” value at DtpB [1] is “Q34 interacts with the ε-amino group of K1* in KV”.

`C[C@H](N)C(=O)N[C@@H](Cc1c[nH]cn1)C(=O)O` [AH] (H-Ala-His-OH) showed a dissociation constant Kd on DtpB [2] of 100 ± 40 µM.

For the molecule `C[C@H](N)C(=O)N[C@@H](Cc1ccccc1)C(=O)O` [AF, Ala-Phe], affinity on DtpB [3] was put at a Ki of 250 ± 80 µM. Besides, half-maximal inhibition at DtpB [4] (IC50) was put at 2370 ± 680 µM. Also, at DtpB [5], the KD entry is “Peptide affinity is color-coded with AF having the highest affinity”.

These data come from doi:10.1101/2023.02.14.528348v1, “Plasticity of the binding pocket in peptide transporters underpins promiscuous substrate recognition” (biorxiv, 2023).
